The source of these data is ChEMBL document CHEMBL4834421, “Deconstructing Noncovalent Kelch-like ECH-Associated Protein 1 (Keap1) Inhibitors into Fragments to Reconstruct New Potent Compounds” (J Med Chem, 2021).

For orientation: half-life means the time needed for the level to fall by half in the phase considered.

The conditions of data set [1]: human, plasma, 3 h, 20 µM.
Another data set in a line: in vitro. The conditions noted are these: CD1, mouse.
The conditions of data set [2]: pampa, 5 h.
The nature of data set [3]: Stability of compound in human plasma assessed as half life at 20 uM incubated for 3 hrs by LC-MS (SIM) assay. It is filed as ADME, cell-free.

Regarding `CCCCC1CCCN1C(=O)[C@@H]1CCC[C@H](c2cccc(-n3ncc(C(=O)O)c3C3CC3)c2)C1` (some centres not stated), the Stabilty entry in data set [1] is “Stable”. The compound `O=C(O)CN(c1cccc(-n2ncc(C(=O)O)c2C2CC2)c1)S(=O)(=O)c1ccccc1` yielded a half-life at 4 h, 10 µM in “in vitro” (liver microsomes) of 4 h. Further, the permeability in data set [2] is given as under 2%. For `O=C(O)c1cnn(-c2cccc(NS(=O)(=O)c3ccccc3)c2)c1C1CC1`, the Stabilty entry in data set [1] is “Stable”. In “in vitro” (liver microsomes), this compound registered a half-life at 4 h, 10 µM of 4 h. The compound further had a permeability in data set [2] of under 2%.

Consider `CNC(=O)c1cnn(-c2cccc(NS(=O)(=O)c3ccccc3)c2)c1C1CC1`, for which the permeability in data set [2] is recorded as under 2%. Take `COc1cccc(S(=O)(=O)N(CC(=O)O)c2cccc(-n3ncc(C(=O)O)c3[C@H]3C[C@@H]3c3ccccc3)c2)c1` (relative stereo): the Stabilty result in data set [1] is “Stable”. The half-life at 4 h, 10 µM in the data set “in vitro” (liver microsomes) amounted to 4 h. The permeability in data set [2] was under 2%.

Consider `CCN(CC)CCOC(=O)c1ccc(N)cc1` [PROCAINE], for which the half-life at 20 µM in data set [3] is 2 min.

Compound `CC(C)NCC(O)COc1cccc2ccccc12` (configuration not stated) [PROPRANOLOL] registered a half-life at 4 h, 10 µM in “in vitro” (microsomes) of 0.617 h.
